Results published in patent publication EP3262942A1, “SELENODIARYLS FOR USE AS MICROBICIDE OR AS MEDICINE” (Evonik Degussa GmbH, priority 2016, dated 2018).

Columns and labels:
[1] = system: Candida albicans; assay: Growth test in microtiter plates, HA medium, 24 h, visual evaluation; format: cell-based; design: key: +: kein Wachstum im Vergleich zur Wachstumskontrolle; -: Wachstum wie Wachstumskontrolle
[2] = system: Mucor miehei; assay: as above; format: cell-based; design: key to Aktivität gegenüber M. miehei: +: kein Wachstum im Vergleich zur Wachstumskontrolle; -: Wachstum wie Wachstumskontrolle
[3] = system: Penicillium notatum; assay: as above; format: cell-based; design: key: +: kein Wachstum im Vergleich zur Wachstumskontrolle; -: Wachstum wie Wachstumskontrolle
[4] = system: Paecilomyces variotii; assay: as above; format: cell-based; design: key: +: kein Wachstum im Vergleich zur Wachstumskontrolle; -: Wachstum wie Wachstumskontrolle
[5] = system: M. grisea H2O; assay: microbe, parasite or virus in culture; format: cell-based, Magnaporthe grisea; details: for inhibition of growth at 5 µg/mL / inhibition of growth at 10 µg/mL / inhibition of growth at 25 µg/mL / inhibition of growth at 50 µg/mL: Pyricularia grisea, H2O, 24 h, read-out: Aktivität gegenüber M. grisea H2O
[6] = system: Botrytis cinerea; assay: microbe, parasite or virus in culture; format: cell-based; details: for inhibition of growth at 5 µg/mL / inhibition of growth at 10 µg/mL / inhibition of growth at 25 µg/mL / inhibition of growth at 50 µg/mL: Botrytis cinerea, 24 h, read-out: Aktivität gegenüber B. cinerea
[7] = system: P. infestans; assay: microbe, parasite or virus in culture; format: cell-based, Phytophthora infestans; details: for inhibition of growth at 5 µg/mL / inhibition of growth at 10 µg/mL / inhibition of growth at 25 µg/mL / inhibition of growth at 50 µg/mL: Phytophthora infestans, 24 h, read-out: Aktivität gegenüber P. infestans
[8] = system: M. grisea CM; assay: microbe, parasite or virus in culture; format: cell-based, Magnaporthe grisea; details: for inhibition of growth at 5 µg/mL / inhibition of growth at 10 µg/mL / inhibition of growth at 25 µg/mL / inhibition of growth at 50 µg/mL: Pyricularia grisea, 24 h, read-out: Aktivität gegenüber M. grisea CM
[9] = system: Lepidium sativum; assay: Crop plant growth test, seeds on filter discs, 4 days, visual evaluation; format: in vivo
Method in brief: (§1)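 Compounds dried from DMSO onto filter discs; about 12 seeds per well with 200 µl sterile tap water, incubated 4 days in a humid chamber under 16 h light/8 h dark. Visual scoring: + means at least 75 % growth inhibition versus control, − means less than 75 %.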

[10] = system: Setaria italica; assay: as above; format: in vivo
Method in brief: as §1

[11] = system: alle getesteten Pathogene; format: cell-based; details: 5-50 µg/mL

## CCc1cc([Se]c2cc(CC)cc(C(C)(C)C)c2O)c(O)c(C(C)(C)C)c1 [Verbindung 15, Bis(3-tert-butyl-5-ethyl-2-hydroxyphenyl)selen]
[1]; 10µg/mL
  Aktivität gegenüber C. albicans: -
[1]; 50µg/mL
  Aktivität gegenüber C. albicans: -
[2]; 10µg/mL
  Aktivität gegenüber M. miehei: -
[2]; 50µg/mL
  Aktivität gegenüber M. miehei: -
[3]; 10µg/mL
  Aktivität gegenüber P. notatum: -
[3]; 50µg/mL
  Aktivität gegenüber P. notatum: -
[4]; 10µg/mL
  Aktivität gegenüber P. variotii: -
[4]; 50µg/mL
  Aktivität gegenüber P. variotii: -
[5]
  inhibition of growth at 5 µg/mL: 0 to 25%
  inhibition of growth at 10 µg/mL: 0 to 25%
  inhibition of growth at 25 µg/mL: 0 to 25%
  inhibition of growth at 50 µg/mL: 0 to 25%
[6]; 5µg/mL
  inhibition of growth at 5 µg/mL: 0 to 25%
[6]; 10µg/mL
  inhibition of growth at 10 µg/mL: 0 to 25%
[6]; 25µg/mL
  inhibition of growth at 25 µg/mL: 0 to 25%
[6]; 50µg/mL
  inhibition of growth at 50 µg/mL: 0 to 25%
[7]
  inhibition of growth at 5 µg/mL: 0 to 25%
  inhibition of growth at 10 µg/mL: 0 to 25%
  inhibition of growth at 25 µg/mL: 0 to 25%
  inhibition of growth at 50 µg/mL: 0 to 25%
[8]
  inhibition of growth at 5 µg/mL: 0 to 25%
  inhibition of growth at 10 µg/mL: 0 to 25%
  inhibition of growth at 25 µg/mL: 0 to 25%
  inhibition of growth at 50 µg/mL: 0 to 25%
[9]; 10µg/R
  Aktivität gegenüber Nutzpflanzen: L. sativum: - (weniger als 75 % Wachstumshemmung im Vergleich zur Kontrolle)
[9]; 20µg/R
  Aktivität gegenüber Nutzpflanzen: L. sativum: - (weniger als 75 % Wachstumshemmung im Vergleich zur Kontrolle)
[9]; 50µg/R
  Aktivität gegenüber Nutzpflanzen: L. sativum: - (weniger als 75 % Wachstumshemmung im Vergleich zur Kontrolle)
[10]; 10µg/R
  Aktivität gegenüber Nutzpflanzen: S. italica: - (weniger als 75 % Wachstumshemmung im Vergleich zur Kontrolle)
[10]; 20µg/R
  Aktivität gegenüber Nutzpflanzen: S. italica: - (weniger als 75 % Wachstumshemmung im Vergleich zur Kontrolle)
[10]; 50µg/R
  Aktivität gegenüber Nutzpflanzen: S. italica: - (weniger als 75 % Wachstumshemmung im Vergleich zur Kontrolle)
[11]
  Aktivität im Wachstums- und Keimungshemmungstest gegen die getesteten Pathogene: weder im Wachstums- noch im Keimungshemmungstest im verwendeten Konzentrationsbereich eine entsprechende Aktivität

## Oc1c(Cl)cc(F)cc1[Se]c1cc(F)cc(Cl)c1O [Verbindung 24, Bis(3-chlor-5-fluor-2-hydroxyphenyl)selen]
[1]; 10µg/mL
  Aktivität gegenüber C. albicans: +
[1]; 50µg/mL
  Aktivität gegenüber C. albicans: +
[2]; 10µg/mL
  Aktivität gegenüber M. miehei: +
[2]; 50µg/mL
  Aktivität gegenüber M. miehei: +
[3]; 10µg/mL
  Aktivität gegenüber P. notatum: +
[3]; 50µg/mL
  Aktivität gegenüber P. notatum: +
[4]; 10µg/mL
  Aktivität gegenüber P. variotii: +
[4]; 50µg/mL
  Aktivität gegenüber P. variotii: -
[5]
  inhibition of growth at 5 µg/mL: > 75%
  inhibition of growth at 10 µg/mL: > 75%
  inhibition of growth at 25 µg/mL: > 75%
  inhibition of growth at 50 µg/mL: > 75%
[6]
  mikrobizide Wirksamkeit gegenüber B. cinerea: mikrobizide Wirksamkeit
[6]; 5µg/mL
  inhibition of growth at 5 µg/mL: > 75%
[6]; 10µg/mL
  inhibition of growth at 10 µg/mL: > 75%
[6]; 25µg/mL
  inhibition of growth at 25 µg/mL: > 75%
[6]; 50µg/mL
  inhibition of growth at 50 µg/mL: > 75%
[7]
  inhibition of growth at 5 µg/mL: > 75%
  inhibition of growth at 10 µg/mL: > 75%
  inhibition of growth at 25 µg/mL: > 75%
  inhibition of growth at 50 µg/mL: > 75%
[8]
  inhibition of growth at 5 µg/mL: > 75%
  inhibition of growth at 10 µg/mL: > 75%
  inhibition of growth at 25 µg/mL: > 75%
  inhibition of growth at 50 µg/mL: > 75%
[9]; 10µg/R
  Aktivität gegenüber Nutzpflanzen: L. sativum: - (weniger als 75 % Wachstumshemmung im Vergleich zur Kontrolle)
[9]; 20µg/R
  Aktivität gegenüber Nutzpflanzen: L. sativum: + (mind. 75 % Wachstumshemmung im Vergleich zur Kontrolle)
[9]; 50µg/R
  Aktivität gegenüber Nutzpflanzen: L. sativum: - (weniger als 75 % Wachstumshemmung im Vergleich zur Kontrolle)
[9]
  Effekt auf L. sativum: deutlichen negativen Effekt
[10]; 10µg/R
  Aktivität gegenüber Nutzpflanzen: S. italica: - (weniger als 75 % Wachstumshemmung im Vergleich zur Kontrolle)
[10]; 20µg/R
  Aktivität gegenüber Nutzpflanzen: S. italica: + (mind. 75 % Wachstumshemmung im Vergleich zur Kontrolle)
[10]; 50µg/R
  Aktivität gegenüber Nutzpflanzen: S. italica: - (weniger als 75 % Wachstumshemmung im Vergleich zur Kontrolle)
[10]
  Effekt auf S. italica: deutlichen negativen Effekt
[11]
  Aktivität im Wachstums- und Keimungshemmungstest gegen die getesteten Pathogene: durchgehende Aktivität gegen alle Pathogene

## Oc1c(F)cc(F)cc1[Se]c1cc(F)cc(F)c1O [Verbindung 25, Bis(3,5-difluoro-2-hydroxyphenyl)selen]
[1]; 10µg/mL
  Aktivität gegenüber C. albicans: -
[1]; 50µg/mL
  Aktivität gegenüber C. albicans: +
[2]; 10µg/mL
  Aktivität gegenüber M. miehei: +
[2]; 50µg/mL
  Aktivität gegenüber M. miehei: +
[3]; 10µg/mL
  Aktivität gegenüber P. notatum: +
[3]; 50µg/mL
  Aktivität gegenüber P. notatum: +
[4]; 10µg/mL
  Aktivität gegenüber P. variotii: +
[4]; 50µg/mL
  Aktivität gegenüber P. variotii: -
[5]; 5µg/mL
  Aktivität gegenüber M. grisea H2O: +++ (mehr als 75 % der Sporen nicht gekeimt)
[5]; 10µg/mL
  Aktivität gegenüber M. grisea H2O: +++ (mehr als 75 % der Sporen nicht gekeimt)
[5]; 25µg/mL
  Aktivität gegenüber M. grisea H2O: +++ (mehr als 75 % der Sporen nicht gekeimt)
[5]; 50µg/mL
  Aktivität gegenüber M. grisea H2O: +++ (mehr als 75 % der Sporen nicht gekeimt)
[6]
  mikrobizide Wirksamkeit gegenüber B. cinerea: mikrobizide Wirksamkeit
[6]; 5µg/mL
  Aktivität gegenüber B. cinerea: + (key: +++: mehr als 75 % der Sporen nicht gekeimt; ++: zwischen 50 und 75 % der Sporen nicht gekeimt; +: zwischen 25 und 50 % der Sporen nicht gekeimt; -: zwischen 0 und 25 % der Sporen nicht gekeimt)
[6]; 10µg/mL
  Aktivität gegenüber B. cinerea: +++ (key: +++: mehr als 75 % der Sporen nicht gekeimt; ++: zwischen 50 und 75 % der Sporen nicht gekeimt; +: zwischen 25 und 50 % der Sporen nicht gekeimt; -: zwischen 0 und 25 % der Sporen nicht gekeimt)
[6]; 25µg/mL
  Aktivität gegenüber B. cinerea: +++ (key: +++: mehr als 75 % der Sporen nicht gekeimt; ++: zwischen 50 und 75 % der Sporen nicht gekeimt; +: zwischen 25 und 50 % der Sporen nicht gekeimt; -: zwischen 0 und 25 % der Sporen nicht gekeimt)
[6]; 50µg/mL
  Aktivität gegenüber B. cinerea: +++ (key: +++: mehr als 75 % der Sporen nicht gekeimt; ++: zwischen 50 und 75 % der Sporen nicht gekeimt; +: zwischen 25 und 50 % der Sporen nicht gekeimt; -: zwischen 0 und 25 % der Sporen nicht gekeimt)
[7]; 5µg/mL
  Aktivität gegenüber P. infestans: +++ (mehr als 75 % der Sporen nicht gekeimt)
[7]; 10µg/mL
  Aktivität gegenüber P. infestans: +++ (mehr als 75 % der Sporen nicht gekeimt)
[7]; 25µg/mL
  Aktivität gegenüber P. infestans: +++ (mehr als 75 % der Sporen nicht gekeimt)
[7]; 50µg/mL
  Aktivität gegenüber P. infestans: +++ (mehr als 75 % der Sporen nicht gekeimt)
[8]; 5µg/mL
  Aktivität gegenüber M. grisea CM: +++ (mehr als 75 % der Sporen nicht gekeimt)
[8]; 10µg/mL
  Aktivität gegenüber M. grisea CM: +++ (mehr als 75 % der Sporen nicht gekeimt)
[8]; 25µg/mL
  Aktivität gegenüber M. grisea CM: +++ (mehr als 75 % der Sporen nicht gekeimt)
[8]; 50µg/mL
  Aktivität gegenüber M. grisea CM: +++ (mehr als 75 % der Sporen nicht gekeimt)
[9]; 10µg/R
  Aktivität gegenüber Nutzpflanzen: L. sativum: - (weniger als 75 % Wachstumshemmung im Vergleich zur Kontrolle)
[9]; 20µg/R
  Aktivität gegenüber Nutzpflanzen: L. sativum: + (mind. 75 % Wachstumshemmung im Vergleich zur Kontrolle)
[9]; 50µg/R
  Aktivität gegenüber Nutzpflanzen: L. sativum: - (weniger als 75 % Wachstumshemmung im Vergleich zur Kontrolle)
[9]
  Effekt auf L. sativum: deutlichen negativen Effekt
[10]; 10µg/R
  Aktivität gegenüber Nutzpflanzen: S. italica: - (weniger als 75 % Wachstumshemmung im Vergleich zur Kontrolle)
[10]; 20µg/R
  Aktivität gegenüber Nutzpflanzen: S. italica: + (mind. 75 % Wachstumshemmung im Vergleich zur Kontrolle)
[10]; 50µg/R
  Aktivität gegenüber Nutzpflanzen: S. italica: - (weniger als 75 % Wachstumshemmung im Vergleich zur Kontrolle)
[10]
  Effekt auf S. italica: deutlichen negativen Effekt
[11]
  Aktivität im Wachstums- und Keimungshemmungstest gegen die getesteten Pathogene: durchgehende Aktivität gegen alle Pathogene
